Patent publication US10323056B2, “Crystalline hydrates of 1-(β-D-glucopyranosyl)-4-methyl-3-[5-(4-fluorophenyl)-2-thienylmethyl]benzene” (Lek Pharmaceuticals d.d., priority 2013, dated 2019)
Values belong to the compound of their own block, whether it stands above or below them.

What was measured:
Type in all cases: physicochemical
[1] = Equilibrium aqueous solubility (HPLC); conditions: for Rel. Solubilities: equilibrium aqueous solubility at 25 ± 1° C., relative to forms HxA/HxB = 100
Protocol: The aqueous solubilities of 1-(β-D-glucopyranosyl)-4-methyl-3-[5-(4-fluorophenyl)-2-thienylmethyl]benzene forms HxA and HxB of the present invention and the hemihydrate of 1-(β-D-glucopyranosyl)-4-methyl-3-[5-(4-fluorophenyl)-2-thienylmethyl]benzene described in WO 2008/069327 A1 were determined by the equilibrium solubility method. Saturated solutions of 1-(β-D-glucopyranosyl)-4-methyl-3-[5-(4-fluorophenyl)-2-thienylmethyl]benzene, obtained by stirring 50 mg of each crystalline form in 50 mL water were prepared and stirred at 25±1° C. After 60 minutes of stirring, three samples were withdrawn, filtered through 0.45 μm syringe filters and the filtrates were directly analyzed by HPLC. • Column: C18 4.6×150 mm 5 μm • Eluent A: 0.1% formic acid-water solution • Eluent B: 0.1% formic acid-acetonitril solution • Injection vol.: 100 μL • Column Temp.: 25° C. • Wavelength: 220 nm • Pump flow: 1.2 mL/min • Gradient: […]
Using six concentration points of known 1-(β-D-glucopyranosyl)-4-methyl-3-[5-(4-fluorophenyl)-2-thienylmethyl]benzene concentrations a calibration line was fitted by linear regression.

[2] = Water content by gravimetric moisture sorption/desorption and TGA
Protocol: The water values at varying relative humidities were obtained by recording moisture sorption isotherms with a SPS-11 moisture sorption analyzer (MD Messtechnik, Ulm, D). […] The equilibrium condition for each step was set to a mass constancy of ±0.005% over 60 min. The temperature was 25±0.1° C.
Thermogravimetric analysis (TGA) was performed using the following equipment/conditions: Thermogravimetric-system TGA-7, Pyris-Software für Windows NT, (Perkin-Elmer, Norwalk, Conn., USA), Platinum-sample holder (50 μl), Nitrogen as the purge gas (Sample purge: 20 mL/min, balance purge: 40 mL/min). Heating rate: 10 K/min; Heating Range: 25-100° C.;

[3] = Competitive slurry in water (XRPD); conditions: 50 mg each in 4 mL water, cycled 7 to 10° C. for 4 days, then 10 to 30° C. for 9 days
Protocol: A suspension of 50 mg 1-(β-D-glucopyranosyl)-4-methyl-3-[5-(4-fluorophenyl)-2-thienylmethyl]benzene form HxA (for example prepared according to the procedure described in example 1 of the present invention) and 50 mg 1-(β-D-glucopyranosyl)-4-methyl-3-[5-(4-fluorophenyl)-2-thienylmethyl]benzene hemihydrate (for example prepared according to the procedure described in example 1 of WO 2008/069327 A1) in 4 mL water was stirred at moderate velocity using a magnetic stirrer. The temperature during the slurry experiment was first cycled between 7 to 10° C. for 4 days changing the temperature every 2 hours. Thereafter the suspension was cycled in the range of 10 to 30° C. for 9 days changing the temperature every 2 hours.

Rel. Solubilities [1]: 100% | increased aqueous solubility compared to the crystalline hemihydrate of WO 2008/069327 A1 ([1]; water, 25.0±1.0° C.): 10% | water content ([2]; at a RH of about 0%): about 0.1% | water content ([2]; at a RH of about 30%): about 3.5% | solid form stability in competitive slurry with hemihydrate [3]: does not transform
SMILES: Cc1ccc([C@@H]2O[C@H](CO)[C@@H](O)[C@H](O)[C@H]2O)cc1Cc1ccc(-c2ccc(F)cc2)s1 [form HxA, 1-(β-D-glucopyranosyl)-4-methyl-3-[5-(4-fluorophenyl)-2-thienylmethyl]benzene]

water content ([2]; at a RH of about 40%): about 6.4% | water content ([2]; at a RH of about 95%): about 8.0%
SMILES: Cc1ccc([C@@H]2O[C@H](CO)[C@@H](O)[C@H](O)[C@H]2O)cc1Cc1ccc(-c2ccc(F)cc2)s1 [form HxB, 1-(β-D-glucopyranosyl)-4-methyl-3-[5-(4-fluorophenyl)-2-thienylmethyl]benzene]

Rel. Solubilities ([1]; listed as hemihydrate of WO 2008/069327 A1 (=Hy0.5), hemihydrate): 90%
SMILES: Cc1ccc([C@@H]2O[C@H](CO)[C@@H](O)[C@H](O)[C@H]2O)cc1Cc1ccc(-c2ccc(F)cc2)s1 [form Hy0.5, 1-(β-D-glucopyranosyl)-4-methyl-3-[5-(4-fluorophenyl)-2-thienylmethyl]benzene hemihydrate, reference compound]
